Patent US10202330B2, “Lysine specific demethylase-1 inhibitors and their use” (ORYZON GENOMICS S.A., priority 2010, dated 2019)
Where a name gives a salt, the structure may show the parent alone. Read-outs that look alike come from different tables or passages of the source.

What was measured:
[1] = target: Human recombinant monoamine oxidase MAO-B (Homo sapiens (Human), UniProt P27338); assay: Monoamine oxidase assay, kynuramine to 4-hydroxyquinoline fluorescence; type: biochemical; settings: Ki (IC50) at Vmax/2; two ranges listed = near the boundary
Source text: (§1) In order to monitor MAO enzymatic activities and/or their inhibition rate by inhibitor(s) of interest, a fluorescent-based (inhibitor)-screening assay was set up. 3-(2-Aminophenyl)-3-oxopropanamine (kynuramine dihydrobromide, Sigma Aldrich), a non fluorescent compound was chosen as a substrate. Kynuramine is a non-specific substrate for both MAOs activities. While undergoing oxidative deamination by MAO activities, kynuramine is converted into 4-hydroxyquinoline (4-HQ), a resulting fluorescent product.
(§2) The monoamine oxidase activity was estimated by measuring the conversion of kynuramine into 4-hydroxyquinoline. Assays were conducted in 96-well black plates with clear bottom (Corning) in a final volume of 100 μL. The assay buffer was 100 mM HEPES, pH 7.5. Each experiment was performed in triplicate within the same experiment.
(§3) The oxidative deamination of the substrate was stopped by adding 50 μL (v/v) of NaOH 2N. […] Arbitrary units were used to measure levels of fluorescence produced in the absence and/or in the presence of inhibitor.
(§4) The Ki (IC50) of each inhibitor was determined at Vmax/2.

[2] = target: Human recombinant monoamine oxidase MAO-A (Homo sapiens (Human), UniProt P21397); assay: as above; type: biochemical; settings: Ki (IC50) at Vmax/2; two ranges listed = near the boundary
Source text: as §1, §2, §3, §4

[3] = target: Human recombinant LSD1 protein (Homo sapiens (Human), UniProt O60341); assay: LSD1 inhibition, Amplex Red peroxide/peroxidase-coupled assay with di-methylated H3-K4 peptide; type: biochemical
Procedure: The demethylase activity was estimated, under aerobic conditions, by measuring the release of H2O2 produced during the catalytic process, using the Amplex® Red peroxide/peroxidase-coupled assay kit (Invitrogen).
Within the experiment, each concentration of inhibitor was tested in triplicate. […] The enzymatic reactions were set up in a 50 mM sodium phosphate, pH 7.4 buffer. At the end of the incubation, Amplex® Red reagent and horseradish peroxidase (HPR) solution were added to the reaction according to the recommendations provided by the supplier (Invitrogen), and left to incubate for 30 extra minutes at room temperature in the dark. A 1 μM H2O2 solution was used as a control of the kit efficiency. The conversion of the Amplex® Red reagent to resorufin due to the presence of H2O2 in the assay, was monitored by fluorescence (excitation at 540 nm, emission at 590 nm) using a microplate reader (Infinite 200, Tecan). Arbitrary units were used to measure level of H2O2 produced in the absence and/or in the presence of inhibitor.
The Ki (IC50) of each inhibitor was estimated at half of the maximum activity.

[4] = test system: human colon cancer cell line HCT116; assay: Cancer cell line study, alamarBlue viability assay; type: cell-based; settings: HCT-116, read-out: EC50 (dose required to inhibit cell growth by 50%), HCT116, 72 hours
Procedure: The HCT116 cell line was maintained in DMEM GlutaMAX (Invitrogen) supplemented with 10% fetal calf serum.
Cells were grown in a humidified incubator at 37° C. in 5% CO2.
Cells were plated in 96-well plates at a density of 6000 cells/well in 100 μl medium 24 h before addition of drugs. […] To do so, a drugs-dilution plate at twice the screening concentrations was prepared. 72 hours later, alamarBlue (Biosource, Invitrogen) viability assay was performed following manufacturer's protocol. In brief, alamarBlue diluted in media was added to cells to have a 5% solution. Cells were incubated at 37° C., 3 hours and at room temperature, 30 min. Cells with no drug and, cells with no drug and lysed with triton X-100 were used as controls. Fluorescence was monitored at 530 nm excitation and 590 nm emission wavelengths. Results were quantified using Infinite F200 Microplate Reader (Tecan Group, Ltd.).

[5] = Ki (IC50) at half of the maximum activity, two ranges listed = near the boundary, read-out: LSD1 (Ki)

SMILES	MAO-B (Ki) [1]	Ki [2] [nM]	LSD1 (Ki) ([3]; Ki (IC50) at half of the maximum activity, two ranges listed = near the boundary)	Ki [1] [nM]	Ki [3, 5] [nM]	EC50 [4] [nM]	Ki [3] [nM]
c1ccc([C@H]2C[C@@H]2NCCCC2CCCCC2)cc1 (relative stereo) [Example 13, (Trans)-N-(3-cyclohexylpropyl)-2-phenylcyclopropanamine hydrochloride]		1000 to 40000		1000 to 40000	100 to 1000		
COc1cccc(-c2ccc(C3C[C@@H]3NC3CCc4ccc(OC)cc43)cc2)c1 (stereo in doubt) [Example 11, 6-methoxy-N-((trans)-2-(3′-methoxybiphenyl-4-yl)cyclopropyl)-2,3-dihydro-1H-inden-1-amine hydrochloride]		1000 to 40000					
COc1ccc2c(c1)C(N[C@@H]1C[C@H]1c1ccc(OCc3ccccc3)cc1)CCC2 (relative stereo) [Example 20, N-((trans)-2-(4-(benzyloxy)phenyl)cyclopropyl)-7-methoxy-1,2,3,4-tetrahydronaphthalen-1-amine]		1000 to 40000		1000 to 40000	100 to 1000		
COc1ccc2c(c1)C(N[C@H]1CC1c1ccc(OCc3cccc(Br)c3)cc1)CC2 (stereo in doubt) [Example 16, N-((trans)-2-(4-(3-bromobenzyloxyl)phenyl)cyclopropyl)-6-methoxy-2,3-dihydro-1H-inden-1-amine hydrochloride]		1000 to 40000		1000 to 40000	100 to 1000		
c1ccc([C@H]2C[C@@H]2NCCC2CCCCCC2)cc1 (relative stereo) [Example 14, (Trans)-N-(2-cycloheptylethyl)-2-phenylcyclopropanamine hydrochloride]		1000 to 40000		1000 to 40000	100 to 1000		
Brc1cccc(COc2ccc([C@H]3C[C@@H]3NCCC3CCCCC3)cc2)c1 (relative stereo) [Example 15, (Trans)-2-(4-(3-bromobenzyloxyl)phenyl)-N-(2-cyclohexylethyl)cyclopropanamine hydrochloride]		1000 to 40000		100 to 1000		~13300	100 to 1000
COc1ccc2c(c1)C(N[C@H]1CC1c1ccccc1)CC2 (stereo in doubt) [Example 5, 6-methoxy-N-((trans)-2-phenylcyclopropyl)-2,3-dihydro-1H-inden-1-amine]		1000 to 40000					

Now from value to compound, other results behind:

MAO-B (Ki) [1]	Ki [2] [nM]	LSD1 (Ki) ([3]; Ki (IC50) at half of the maximum activity, two ranges listed = near the boundary)	Ki [1] [nM]	Ki [3, 5] [nM]	SMILES	EC50 [4] [nM]	Ki [3] [nM]
II, III	1000 to 40000				COc1ccc2c(c1)C(N[C@H]1CC1c1ccc(OCc3ccccc3)cc1)CC2.Cl (stereo in doubt) [Example 1, N-((trans)-2-(4-(benzyloxy)phenyl)cyclopropyl)-6-methoxy-2,3-dihydro-1H-inden-1-amine hydrochloride]		
	1000 to 40000	II, III	1000 to 40000		COc1ccc2c(c1OC)CCC2N[C@H]1CC1c1ccc(OCc2ccccc2)cc1.Cl (stereo in doubt) [Example 3, N-((trans)-2-(4-(benzyloxy)phenyl)cyclopropyl)-4,5-dimethoxy-2,3-dihydro-1H-inden-1-amine hydrochloride]	~37000	
	1000 to 40000		1000 to 40000	100 to 1000	COc1ccc2c(c1)C(N[C@H]1CC1c1ccccc1)CCC2 (stereo in doubt) [Example 8, 7-methoxy-N-((trans)-2-phenylcyclopropyl)-1,2,3,4-tetrahydronaphthalen-1-amine]		
	1000 to 40000		1000 to 40000	100 to 1000	Clc1ccc2c(c1)C(N[C@H]1CC1c1ccccc1)CC2 (stereo in doubt) [Example 6, 6-chloro-N-((trans)-2-phenylcyclopropyl)-2,3-dihydro-1H-inden-1-amine hydrochloride]		
	1000 to 40000				c1ccc(C2C[C@@H]2NC2CCc3ccccc32)cc1 (stereo in doubt) [Example 4, N-((trans)-2-phenylcyclopropyl)-2,3-dihydro-1H-inden-1-amine hydrochloride]		
